According to US9340577B2, “HLA binding motifs and peptides and their uses” (priority 1992, dated 2016):
Like-named read-outs stand apart in the source and are kept apart here. No end group written: not given here.

Legend:
Experiment in all cases: biochemical
DRB4*0101 = DRB4*0101 (Homo sapiens, UniProt P01903+P13762, G164S); type: binding
DR7 (DRB1*0701) = DR7 (DRB1*0701) (Homo sapiens, UniProt P01903+P01911, A100R/A102G/A103Q/D57E/D86V/E43K/F76Y/K127E/L162R/M171V/P40G/Q125H/Q99D/R33Q/R42Y/R54Q/S133A/S66F/T210M/V115G/Y107V/Y59L/Y89S); type: binding
DRB5*0101 = DRB5*0101 (Homo sapiens, UniProt P01903+Q30154); conditions: Binding affinity DRB5 *0101
DRB1*0405 = DRB1*0405 (Homo sapiens, UniProt P01903+P01911, A100R/A169T/D86S/F76Y/I96L/K127E/L162R/M171V/N62H/P40V/Q125Y/R42H/S133A/S149N/S66Y/V115G/V209L/W38E); type: binding
DRB1*0802 = DRB1*0802 (Homo sapiens, UniProt P01903+P01911, A100R/A103L/A169T/F76Y/H45Y/I96F/K41T/L162R/M171V/P40S/Q125H/Q178H/Q39Y/Q99D/R218S/R42G/S66Y/V115G/W38E); type: binding
DRB1*1101 = DRB1*1101 (Homo sapiens, UniProt P01903+P01911, A100R/A169T/A87E/I96F/K41T/L162R/M171V/P40S/Q125H/Q178H/Q39Y/Q99D/R42S/S66Y/T262R/V115G/W38E)
Sequence of DRB1*1101 (P01903 26-254 limits assumed, other chains not shown): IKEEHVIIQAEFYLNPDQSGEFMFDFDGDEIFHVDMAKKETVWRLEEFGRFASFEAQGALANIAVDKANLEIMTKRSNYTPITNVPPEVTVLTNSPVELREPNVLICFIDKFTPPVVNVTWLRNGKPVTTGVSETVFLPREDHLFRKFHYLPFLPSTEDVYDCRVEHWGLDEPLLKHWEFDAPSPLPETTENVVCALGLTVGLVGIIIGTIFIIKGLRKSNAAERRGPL

DRB1*1302 = DRB1*1302 (Homo sapiens, UniProt P01903+P01911, A100E/A169T/K41T/L162R/M171V/P40S/Q125H/Q178H/Q39Y/Q99D/R42S/S66N/T262R/V115G/W38E/Y61H); type: binding
Sequence of DRB1*1302 (P01903 26-254 limits assumed, other chains not shown): as above

DR1 (DRB1*0101) = DR1 (DRB1*0101) (Homo sapiens, UniProt P01903+P01911, A100R/D57E/F55L/F60I/F76Y/I96L/L162R/M171V/P40L/Q125E/R42F/V115G/Y59C); type: binding
DRB1*0901 = DRB1*0901 (Homo sapiens, UniProt P01903+P01911, A100R/A103E/D57H/D86V/F55Y/F60I/F76Y/I96F/K127E/L162R/M171V/P40D/Q125H/Q99R/R33Q/R42F/S133A/S66N/T210M/V115G/W38K/Y107V/Y59G/Y89S); type: binding
DRB1*1501 = DRB1*1501 (Homo sapiens, UniProt P01903+P01911); type: binding
DR4w4 (DRB1*0401) = DR4w4 (DRB1*0401) (Homo sapiens, UniProt P01903+P01911, A100K/A169T/F76Y/I96L/K127E/L162R/M171V/N62H/P40V/Q125Y/R42H/S133A/S149N/S66Y/V115G/V209L/W38E); type: binding

Compound | IC50 (DRB4*0101) | IC50 (DR7 (DRB1*0701)) | IC50 (DRB5*0101) | IC50 (DRB1*0405) | IC50 (DRB1*0802) | IC50 (DRB1*1101; Binding affinity DRB1 *1101) | IC50 (DRB1*1302) | IC50 (DR1 (DRB1*0101)) | IC50 (DRB1*0901) | IC50 (DRB1*1501) | IC50 (DR4w4 (DRB1*0401)) | IC50 (DRB1*1101)
CC(C)[C@H](NC(=O)[C@H](CO)NC(=O)[C@@H](NC(=O)[C@@H](N)[C@@H](C)O)C(C)C)C(=O)NCC(=O)N[C@H](C(=O)N[C@@H](C)C(=O)N[C@@H](CCCCN)C(=O)N[C@H](C(=O)N[C@@H](Cc1ccc(O)cc1)C(=O)NCC(=O)N[C@@H](CCC(N)=O)C(=O)N[C@H](C(=O)N[C@@H](CO)C(=O)N[C@@H](C)C(=O)O)[C@@H](C)O)[C@@H](C)O)[C@@H](C)O [Peptide 89.0163] | 0.229 µM | > 20 µM | > 20 µM | 2.33 µM | > 20 µM | > 20 µM | > 20 µM | > 20 µM | > 20 µM | 8.71 µM |  | 
CC(C)C[C@H](NC(=O)[C@H](CC(C)C)NC(=O)[C@@H]1CCCN1C(=O)[C@@H](N)CC(N)=O)C(=O)NCC(=O)N[C@@H](C)C(=O)N[C@@H](C)C(=O)N[C@H](C(=O)N1CCC[C@H]1C(=O)N[C@H](C(=O)NCC(=O)N[C@@H](CC(N)=O)C(=O)N[C@@H](CC(N)=O)C(=O)N[C@@H](CCCCN)C(=O)N[C@@H](CCCNC(=N)N)C(=O)O)[C@@H](C)O)[C@@H](C)O [Peptide 89.0165] |  | > 20 µM | > 20 µM | 8.25 µM | > 20 µM | > 20 µM | > 20 µM | 0.655 µM | 9.38 µM |  | 1.24 µM | 
CSCC[C@H](NC(=O)[C@H](Cc1ccc(O)cc1)NC(=O)[C@H](Cc1ccc(O)cc1)NC(=O)[C@@H](NC(=O)[C@H](CO)NC(=O)[C@H](CC(=O)O)NC(=O)[C@H](Cc1c[nH]c2ccccc12)NC(=O)[C@H](C)NC(=O)[C@@H](N)C(C)C)C(C)C)C(=O)N[C@H](C(=O)N[C@@H](CC(=O)O)C(=O)N[C@@H](C)C(=O)NCC(=O)N[C@H](C(=O)N[C@@H](Cc1c[nH]c2ccccc12)C(=O)O)[C@@H](C)O)[C@@H](C)O [Peptide 1601.10] |  |  | > 20 µM | 7.43 µM | > 20 µM | > 20 µM | > 20 µM | 7.86 µM | 0.587 µM | > 20 µM | 1.66 µM | 
DCKWGVLILALLRYK [Peptide 89.0026] |  | 7.36 µM | 1.12 µM | 1.34 µM | 1.8 µM | 0.389 µM | 0.786 µM |  | 1 µM | 0.41 µM | 1.09 µM | 
DSDIAYYYAQLADSN [Peptide 89.0071] | 0.978 µM | 4.13 µM | > 20 µM | 6.03 µM |  | 9.14 µM | > 20 µM | 0.198 µM | 2.34 µM | 0.013 µM |  | 
DWCIIGMGVTPSVAE [Peptide 89.0096] | 0.19 µM | 2.64 µM | > 20 µM | > 20 µM | > 20 µM | > 20 µM | 4.34 µM | > 20 µM | > 20 µM | 8.31 µM |  | 
FAGIVTKLPTANNTT [Peptide 89.0175] | 1.2 µM | 1.28 µM |  | 5.87 µM | 1.56 µM | 7.63 µM |  |  | > 20 µM | 2.55 µM |  | 
FIHFIQGAVISFVNS [Peptide 89.0036] | 0.13 µM |  | 6.02 µM | 1.22 µM | 3.42 µM | 4.33 µM | 0.097 µM |  | 0.137 µM | 0.677 µM |  | 
FLSYFKLFLQGTPKH [Peptide 89.0132] | 0.0087 µM | > 20 µM | > 20 µM | 7.81 µM | > 20 µM | > 20 µM | 1.3 µM | > 20 µM |  | > 20 µM |  | 
GQVIVFPESVFSSDE [Peptide 89.0173] | > 20 µM | > 20 µM | > 20 µM | > 20 µM | 2.12 µM | > 20 µM | > 20 µM |  | > 20 µM | > 20 µM |  | 
LIRMECALLYTAKQM [Peptide 89.0179] | > 20 µM | 7.47 µM | > 20 µM | > 20 µM | > 20 µM | > 20 µM | > 20 µM | 0.998 µM | > 20 µM | > 20 µM |  | 
LMQLKCPPLLITSNI [Peptide 89.0057] | 0.068 µM |  | > 20 µM | 1.48 µM | 2.8 µM |  | 0.123 µM | 0.214 µM | 5.08 µM | 0.16 µM |  | 
MVQVEEQQTTLSCNG [Peptide 89.0040] |  | > 20 µM | > 20 µM | > 20 µM | > 20 µM | > 20 µM | > 20 µM |  | > 20 µM | > 20 µM | 0.34 µM | 
NCILLYGPANTGKSY [Peptide 89.0087] |  | > 20 µM | 6.46 µM | 7.34 µM | 13.5 µM | 8.05 µM |  | 0.11 µM | > 20 µM | 0.066 µM | 0.28 µM | 
NGWFYVEAVVEKKTG [Peptide 90.0029] |  | 0.307 µM |  | 0.027 µM | 6.4 µM | 2.74 µM | 5.49 µM | 0.219 µM | 0.955 µM | > 20 µM | 0.031 µM | 
NTEVETQQMVQQVES [Peptide 89.0059] |  | > 20 µM | > 20 µM | > 20 µM | > 20 µM | > 20 µM |  | > 20 µM | > 20 µM | > 20 µM | > 20 µM | 
NTEVETQQMVQVEEQ [Peptide 89.0039] |  | > 20 µM | > 20 µM | > 20 µM |  | > 20 µM | > 20 µM | 2.63 µM | > 20 µM | > 20 µM | > 20 µM | 
PEWIEQQTVLQHSFD [Peptide 89.0105] | 0.98 µM | 6.21 µM |  | 5.59 µM |  |  | 1.31 µM |  |  | 11.3 µM |  | 
PMAVSKAKACQAIEL [Peptide 90.0013] | 1.59 µM |  | 12.8 µM | > 20 µM |  | 1.55 µM | 0.535 µM | 0.089 µM |  | 16.6 µM |  | 
PMCMMIEPPKLRSTA [Peptide 90.0034] |  | 0.369 µM | 0.271 µM | 2.11 µM | 4.33 µM | 2.04 µM | 1.58 µM | 0.037 µM | 11.3 µM | 3.34 µM | 0.366 µM | 
PPLLITTNINPMLDA [Peptide 89.0139] |  | 7.54 µM |  | 3.39 µM | 7.65 µM |  | > 20 µM | 1.22 µM | > 20 µM | 4.78 µM | 0.623 µM | 7.37 µM
TNCMLIQPPKLRSTA [89,0046] |  |  |  | 3.22 µM |  |  |  | 0.017 µM |  |  | 1.86 µM | 
TPEWIDRLTVLQHSF [Peptide 89.0069] | 0.122 µM | 5.21 µM | > 20 µM | 0.987 µM | 0.275 µM |  | 8.86 µM | 14.6 µM | > 20 µM | 3.83 µM |  | 
TPEWIEQQTVLQHSF [Peptide 89.0104] | > 20 µM | > 20 µM | 5.46 µM | 2.88 µM | 14.1 µM | > 20 µM | > 20 µM | 0.949 µM | > 20 µM | 13 µM |  | 
WCIIGMGVTPSVAEG [Peptide 89.0097] |  | 3.55 µM | > 20 µM | > 20 µM | > 20 µM | > 20 µM | 2.09 µM | > 20 µM | > 20 µM | > 20 µM | > 20 µM | 
YLVCGERGFFYTKPT [Peptide 9000.0079] |  |  |  | > 30.1 µM | > 54.4 µM |  |  |  |  |  | > 20.5 µM | 
